Source: patent publication US20230271950A1, “ANTIBACTERIAL PICOLINAMIDE COMPOUNDS” (University of Notre Dame Du Lac, priority 2020, published 2023)

Experiments:
C. difficile = assay: Minimum bactericidal concentration (MBC); type: cell-based, Clostridioides difficile
C. difficile ATCC43255 = assay: Macromolecular synthesis assay (radioactive precursor incorporation); type: cell-based, Clostridioides difficile; conditions: 0.5×MIC
Method: FIG. 2. Mechanism of action of compound 1. (A) Macromolecular biosynthesis assays: Compound 1 was incubated with C. difficile ATCC43255 at 0.5×MIC. […] The incubation time was 60 min for DNA, 120 min for peptidoglycan synthesis and RNA, and 180 min for protein synthesis. (B-G) Imaging of C. difficile […] vegetative cells (logarithmic growth) by scanning electron microscopy.
The mechanism of action of 1 was investigated using macromolecular synthesis assays. These assays measure the incorporation of radioactive precursors ([2,8-^3H]-adenine, [5,6-^3H]-uridine, 1-[3,4,5-^3H(N)]-leucine, and N-acetyl-d-[6-^3H]glucosamine) respectively into DNA, RNA, protein, and peptidoglycan. […] This analysis visualizes the cell wall as the outermost layer of the cell envelope of Gram-positive bacteria such as C. difficile.
Macromolecular synthesis assay. The macromolecular synthesis assay was performed by established methods. […] The radiolabeled precursors were purchased from Perkin Elmer (Waltham, Mass., USA).

ESKAPE panel = assay: MIC against the ESKAPE panel; type: cell-based; conditions: E. faecium, S. aureus, K. pneumoniae, A. baumannii, P. aeruginosa, Enterobacter species
Method: Minimum-inhibitory Concentration Determination. MICs for C. difficile strains and other gut bacteria were determined with the broth microdilution method as previously described (J. Antimicrob. Chemother. 2013, 68, 515). ESKAPE panel and MRSA MICs were determined as described in the Clinical & Laboratory Standards Institute guidelines.

SMILES	MBC higher than MIC (C. difficile; C. difficile)	MBC (C. difficile; Clostridioides difficile, C. difficile)	bacteriostatic or bactericidal (by definition) (C. difficile; from MBC versus MIC)	inhibition of DNA, RNA, and protein synthesis (C. difficile ATCC43255)	inhibition of cell-wall peptidoglycan biosynthesis (C. difficile ATCC43255; N-acetyl-d-[6-^3H]glucosamine incorporation, 120 min)	activity against the ESKAPE panel (ESKAPE panel)
O=C(O)c1ccc2oc(NC(=O)c3cc(Oc4cccc(OC(F)(F)F)c4)ccn3)nc2c1 [Compound 1, Sodium 2-(4-(3-(trifluoromethoxy)phenoxy)picolinamido)benzo[d]oxazole-5-carboxylate]	64 fold	4 µg/mL	bacteriostatic	Minimal levels of inhibition	55±4%	
O=C(Nc1ncco1)c1ccnc(-c2ccc(Cl)c(Cl)c2)c1 [Compound 4, 2-(3,4-Dichlorophenyl)-N-(oxazol-2-yl)isonicotinamide]						active only against the Gram-positive members of the panel
